How the values were obtained:
[1] = molecular target: CXCR3 (Macaca fascicularis, UniProt A0A2K5UV19); assay: functional cellular assay measuring calcium flux in CXCR3 transfected cells (block of CXCR3/IP-10 interaction); format: cell-based, Cyno; details: IP-10 induced intracellular calcium flux; Cyno-CHO cells stably expressing recombinant CXCR3 and G-alpha-16; IP-10 at EC80; read-out: IC50
Outline: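 Inhibition of IP-10-induced calcium flux at 10 microM final compound, 15 min room-temperature preincubation, with IP-10 at EC80. Cells: CHO stably transfected with cynomolgus CXCR3 plus G-alpha-16, dye-loaded (Ca-4, 2 mM probenecid, HBSS/HEPES pH 7.4) 1 h at 37° C.; fluorescence ex 480/em 540 nm.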

[2] = system: LDL receptor knockout model; details: dosed prophylactically in a LDL receptor knockout model; cited from earlier work

CXCR3, sequence (A0A2K5UV19 entry or part of it): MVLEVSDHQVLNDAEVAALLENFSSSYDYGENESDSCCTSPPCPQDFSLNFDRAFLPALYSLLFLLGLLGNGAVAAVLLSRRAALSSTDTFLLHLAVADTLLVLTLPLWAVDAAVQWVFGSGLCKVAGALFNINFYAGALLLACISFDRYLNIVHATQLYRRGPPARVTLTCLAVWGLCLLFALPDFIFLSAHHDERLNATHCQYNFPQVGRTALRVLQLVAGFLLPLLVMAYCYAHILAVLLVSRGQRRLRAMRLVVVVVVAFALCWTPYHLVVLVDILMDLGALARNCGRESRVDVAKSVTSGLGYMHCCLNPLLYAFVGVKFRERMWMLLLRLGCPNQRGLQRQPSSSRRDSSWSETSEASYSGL

SMILES | IC50 [1] | atherosclerotic lesion formation [2]
C[C@@H]1CN(c2ccc(F)cc2C(=O)Nc2nc3c(s2)CN(C)CC3)CCN1C(=O)Cn1c(=O)[nH]c2ccccc21 [5-fluoro-2-{(3R)-3-methyl-4-[(2-oxo-2,3-dihydro-1H-benzimidazol-1-yl)acetyl]piperazin-1-yl}-N-(5-methyl-4,5,6,7-tetrahydro[1,3]thiazolo[5,4-c]pyridin-2-yl)benzamide] | 18 nM | –
C[C@H]1CN(c2ccc(F)cc2C(=O)Nc2nc3c(s2)CN(C)CC3)CCN1C(=O)Cn1c(=O)[nH]c2ccccc21 [5-fluoro-2-{(3S)-3-methyl-4-[(2-oxo-2,3-dihydro-1H-benzimidazol-1-yl)acetyl]piperazin-1-yl}-N-(5-methyl-4,5,6,7-tetrahydro[1,3]thiazolo[5,4-c]pyridin-2-yl)benzamide] | 12 nM | –
C[C@H]1CN(c2ccc(F)cc2C(=O)Nc2nc3c(s2)CN(C)CC3)CCN1C(=O)CN1CCCCC1=O [5-fluoro-2-{(3S)-3-methyl-4-[(2-oxopiperidin-1-yl)acetyl]piperazin-1-yl}-N-(5-methyl-4,5,6,7-tetrahydro[1,3]thiazolo[5,4-c]pyridin-2-yl)benzamide] | 17 nM | –
CC(C)C(=O)N(C)CC(=O)N1CCN(c2ccc(F)cc2C(=O)Nc2nc3c(s2)CN(C)CC3)C[C@@H]1C [5-fluoro-2-{(3S)-3-methyl-4-[N-methyl-N-(2-methylpropanoyl)glycyl]piperazin-1-yl}-N-(5-methyl-4,5,6,7-tetrahydro[1,3]thiazolo[5,4-c]pyridin-2-yl)benzamide] | 14 nM | –
COc1cc(NC(=O)c2cc(F)ccc2N2CCN(C(=O)Cn3ccc4ccncc43)[C@@H](C)C2)ccn1 [5-fluoro-N-(2-methoxypyridin-4-yl)-2-[(3S)-3-methyl-4-(1H-pyrrolo[2,3-c]pyridin-1-ylacetyl)piperazin-1-yl]benzamide] | 6 nM | –
COc1cc(NC(=O)c2cc(F)ccc2N2CCN(C(=O)CN3Cc4ccccc4C3=O)[C@H](C)C2)ccn1 [5-fluoro-N-(2-methoxypyridin-4-yl)-2-{(3R)-3-methyl-4-[(1-oxo-1,3-dihydro-2H-isoindol-2-yl)acetyl]piperazin-1-yl}benzamide] | 7 nM | –
COc1cc(NC(=O)c2cc(F)ccc2N2CCN(C(=O)CN3CCCCC3=O)[C@H](C)C2)ccn1 [5-fluoro-N-(2-methoxypyridin-4-yl)-2-{(3R)-3-methyl-4-[(2-oxopiperidin-1-yl)acetyl]piperazin-1-yl}benzamide] | 10 nM | –
COc1cc(NC(=O)c2cc(F)ccc2N2CCN(C(=O)CN3Cc4ccccc4C3=O)[C@@H](C)C2)ccn1 [5-fluoro-N-(2-methoxypyridin-4-yl)-2-{(3S)-3-methyl-4-[(1-oxo-1,3-dihydro-2H-isoindol-2-yl)acetyl]piperazin-1-yl}benzamide] | 13 nM | –
COc1cc(NC(=O)c2cc(F)ccc2N2CCN(C(=O)Cn3c(=O)[nH]c4ccccc43)[C@@H](C)C2)ccn1 [5-fluoro-N-(2-methoxypyridin-4-yl)-2-{(3S)-3-methyl-4-[(2-oxo-2,3-dihydro-1H-benzimidazol-1-yl)acetyl]piperazin-1-yl}benzamide] | 9 nM | –
COc1cc(NC(=O)c2cc(F)ccc2N2CCN(C(=O)CN(C)C(=O)C(C)C)[C@@H](C)C2)ccn1 [5-fluoro-N-(2-methoxypyridin-4-yl)-2-{(3S)-3-methyl-4-[N-methyl-N-(2-methylpropanoyl)glycyl]piperazin-1-yl}benzamide] | 11 nM | –
N#Cc1ccc(-c2ccccc2N2CCN(C(=O)Cn3ccc4cccnc43)CC2)cn1 [5-{2-[4-(2-Pyrrolo[2,3-b]pyridin-1-yl-acetyl)-piperazin-1-yl]-phenyl}-pyridine-2-carbonitrile] | 5 nM | –
COc1cc(NC(=O)c2cc(F)ccc2N2CCN(C(=O)CN(C)C(=O)c3ncoc3C)[C@@H](C)C2)ccn1 [N-{2-[(2S)-4-{4-fluoro-2-[(2-methoxypyridin-4-yl)carbamoyl]phenyl}-2-methylpiperazin-1-yl]-2-oxoethyl}-N,5-dimethyl-1,3-oxazole-4-carboxamide] | 11 nM | –
CCOc1ccc(-n2c(C(C)N(Cc3cccnc3)C(=O)Cc3ccc(F)c(C(F)(F)F)c3)nc3ncccc3c2=O)cc1 (centres unmarked) [NBI-74330] | – | significantly attenuated atherosclerotic lesion formation

Second part, led by results:

IC50 [1] | SMILES | atherosclerotic lesion formation [2]
11 nM | COc1cc(NC(=O)c2cc(F)ccc2N2CCN(C(=O)Cn3cnc4cccnc43)[C@@H](C)C2)ccn1 [5-fluoro-2-[(3S)-4-(3H-imidazo[4,5-b]pyridin-3-ylacetyl)-3-methylpiperazin-1-yl]-N-(2-methoxypyridin-4-yl)benzamide] | –
15 nM | C[C@H]1CN(c2ccc(F)cc2C(=O)Nc2nc3c(s2)CN(C)CC3)CCN1C(=O)Cn1cnc2cccnc21 [5-fluoro-2-[(3S)-4-(3H-imidazo[4,5-b]pyridin-3-ylacetyl)-3-methylpiperazin-1-yl]-N-(5-methyl-4,5,6,7-tetrahydro[1,3]thiazolo[5,4-c]pyridin-2-yl)benzamide] | –
15 nM | C[C@@H]1CN(c2ccc(F)cc2C(=O)Nc2nc3c(s2)CN(C)CC3)CCN1C(=O)CN1Cc2ccccc2C1=O [5-fluoro-2-{(3R)-3-methyl-4-[(1-oxo-1,3-dihydro-2H-isoindol-2-yl)acetyl]piperazin-1-yl}-N-(5-methyl-4,5,6,7-tetrahydro[1,3]thiazolo[5,4-c]pyridin-2-yl)benzamide] | –
20 nM | C[C@@H]1CN(c2ccc(F)cc2C(=O)Nc2nc3c(s2)CN(C)CC3)CCN1C(=O)CN1CCCCC1=O [5-fluoro-2-{(3R)-3-methyl-4-[(2-oxopiperidin-1-yl)acetyl]piperazin-1-yl}-N-(5-methyl-4,5,6,7-tetrahydro[1,3]thiazolo[5,4-c]pyridin-2-yl)benzamide] | –
19 nM | CC(C)C(=O)N(C)CC(=O)N1CCN(c2ccc(F)cc2C(=O)Nc2nc3c(s2)CN(C)CC3)C[C@H]1C [5-fluoro-2-{(3R)-3-methyl-4-[N-methyl-N-(2-methylpropanoyl)glycyl]piperazin-1-yl}-N-(5-methyl-4,5,6,7-tetrahydro[1,3]thiazolo[5,4-c]pyridin-2-yl)benzamide] | –
15 nM | C[C@H]1CN(c2ccc(F)cc2C(=O)Nc2nc3c(s2)CN(C)CC3)CCN1C(=O)CN1Cc2ccccc2C1=O [5-fluoro-2-{(3S)-3-methyl-4-[(1-oxo-1,3-dihydro-2H-isoindol-2-yl)acetyl]piperazin-1-yl}-N-(5-methyl-4,5,6,7-tetrahydro[1,3]thiazolo[5,4-c]pyridin-2-yl)benzamide] | –
9 nM | COc1cc(NC(=O)c2cc(F)ccc2N2CCN(C(=O)Cn3ccc4cccnc43)[C@H](C)C2)ccn1 [5-fluoro-N-(2-methoxypyridin-4-yl)-2-[(3R)-3-methyl-4-(1H-pyrrolo[2,3-b]pyridin-1-ylacetyl)piperazin-1-yl]benzamide] | –
9 nM | COc1cc(NC(=O)c2cc(F)ccc2N2CCN(C(=O)Cn3ccc4ccncc43)[C@H](C)C2)ccn1 [5-fluoro-N-(2-methoxypyridin-4-yl)-2-[(3R)-3-methyl-4-(1H-pyrrolo[2,3-c]pyridin-1-ylacetyl)piperazin-1-yl]benzamide] | –
18 nM | COc1cc(NC(=O)c2cc(F)ccc2N2CCN(C(=O)Cn3ccc4cccnc43)[C@@H](C)C2)ccn1 [5-fluoro-N-(2-methoxypyridin-4-yl)-2-[(3S)-3-methyl-4-(1H-pyrrolo[2,3-b]pyridin-1-ylacetyl)piperazin-1-yl]benzamide] | –
8 nM | COc1cc(NC(=O)c2cc(F)ccc2N2CCN(C(=O)Cn3c(=O)[nH]c4ccccc43)[C@H](C)C2)ccn1 [5-fluoro-N-(2-methoxypyridin-4-yl)-2-{(3R)-3-methyl-4-[(2-oxo-2,3-dihydro-1H-benzimidazol-1-yl)acetyl]piperazin-1-yl}benzamide] | –
9 nM | COc1cc(NC(=O)c2cc(F)ccc2N2CCN(C(=O)CN(C)C(=O)C(C)C)[C@H](C)C2)ccn1 [5-fluoro-N-(2-methoxypyridin-4-yl)-2-{(3R)-3-methyl-4-[N-methyl-N-(2-methylpropanoyl)glycyl]piperazin-1-yl}benzamide] | –
8 nM | COc1cc(NC(=O)c2cc(F)ccc2N2CCN(C(=O)CN3CCCCC3=O)[C@@H](C)C2)ccn1 [5-fluoro-N-(2-methoxypyridin-4-yl)-2-{(3S)-3-methyl-4-[(2-oxopiperidin-1-yl)acetyl]piperazin-1-yl}benzamide] | –
13 nM | N#Cc1ncc(-c2ccccc2N2CCN(C(=O)Cn3ccc4cccnc43)CC2)cn1 [5-{2-[4-(2-Pyrrolo[2,3-b]pyridin-1-yl-acetyl)-piperazin-1-yl]-phenyl}-pyrimidine-2-carbonitrile] | –
12 nM | COc1cc(NC(=O)c2cc(F)ccc2N2CCN(C(=O)CN(C)C(=O)c3ncoc3C)[C@H](C)C2)ccn1 [N-{2-[(2R)-4-{4-fluoro-2-[(2-methoxypyridin-4-yl)carbamoyl]phenyl}-2-methylpiperazin-1-yl]-2-oxoethyl}-N,5-dimethyl-1,3-oxazole-4-carboxamide] | –
35 nM | Cc1ocnc1C(=O)N(C)CC(=O)N1CCN(c2ccc(F)cc2C(=O)Nc2nc3c(s2)CN(C)CC3)C[C@H]1C [N-{2-[(2R)-4-{4-fluoro-2-[(5-methyl-4,5,6,7-tetrahydro[1,3]thiazolo[5,4-c]pyridin-2-yl)carbamoyl]phenyl}-2-methylpiperazin-1-yl]-2-oxoethyl}-N,5-dimethyl-1,3-oxazole-4-carboxamide] | –
21 nM | Cc1ocnc1C(=O)N(C)CC(=O)N1CCN(c2ccc(F)cc2C(=O)Nc2nc3c(s2)CN(C)CC3)C[C@@H]1C [N-{2-[(2S)-4-{4-fluoro-2-[(5-methyl-4,5,6,7-tetrahydro[1,3]thiazolo[5,4-c]pyridin-2-yl)carbamoyl]phenyl}-2-methylpiperazin-1-yl]-2-oxoethyl}-N,5-dimethyl-1,3-oxazole-4-carboxamide] | –

Source: patent US8450317B2, “CXCR3 receptor antagonists” (Boehringer Ingelheim International GmbH, priority 2009, dated 2013)
